How the values were obtained:
MDA-MB-231 cells = details: cited from earlier work
[1] = system: LASP1-eIF4A interaction in 231S cells; experiment: Proximity ligation assay (PLA) of LASP1-eIF4A interaction; format: cell-based, human
Description: The Duolink In Situ Orange Fluorescent kit (Sigma/Aldrich, St. Louis, Mo., Cat. No. DUO92102-1KT) was employed to detect the endogenous interaction between LASP1 and eIF4A in situ in 231S cells. The PLA was performed according to the manufacturer's instructions using a rabbit eIF4A1 antibody (Cohesion Biosciences, London, Purley, Cat. No. CQA1180) and a mouse LASP1 antibody (Biolegend, San Diego, Calif., Cat. No. 909301). The single Ab control condition represents the PLA reaction with only the LASP1 antibody. In addition, cells were stained with phalloidin (Life Technologies, Carlsbad, Calif., Cat. No. A12379) and nuclei with DRAQ5 (Thermo Scientific, Rockford, Ill., Cat No. 62251). Cells were stimulated and inhibited as described. Moreover, cells were fixed, stained, and permeabilized with standard methods. The images were acquired by two-photon confocal microscopy and processed with Leica Application Suite X software (Leica, Wetzlar, Germany). Quantification of the interaction dots was performed using ImageJ.

[2] = system: LASP1-eIF4A/eIF4B association in 231S cells; experiment: Co-immunoprecipitation of LASP1 with eIF4A/eIF4B; format: cell-based, human
Description: Subconfluent 231S cells were serum-starved for 1 hour and stimulated with 10-20 nM CXCL12 (PeptroTech, Rocky Hill, N.J., Cat. No. 300-28A) over different time points. […] Total protein in the clarified lysate was quantified using a Bradford protein assay (Bio-Rad, Hercules, Calif., Cat. No. 5000006). 1 mg of total protein lysate was employed in all immunoprecipitation reactions. eIF4B was immunoprecipitated by using 2 μg of eIF4B antibody (Cell Signaling Technology, Danvers, Mass., Cat. No. 13088). Mouse (G3A1) mAb IgG1 Isotype Control (Cell Signaling Technology, Danvers, Mass., Cat. No. 5415) served as the mock control. Next, eIF4A was immunoprecipitated using 2 μg of eIF4A1 antibody (Cohesion Biosciences, London, Purley, Cat. No. CQA1180). His-Tag (D3L10) XP® Rabbit mAb (Cell Signaling Technology, Danvers, Mass., Cat. No. 12698) was employed for the mock condition. Finally, in the reciprocal Co-IP, LASP1 was immunoprecipitated by using 2 μg LASP1 antibody (Biolegend, San Diego, Calif., Cat. No. 909301). As in the eIF4B Co-IP, mouse (G3A1) IgG1 isotype mAb was employed as the mock control. […] Proteins of interest were analyzed by sodium dodecyl sulfate-polyacrylamide gel electrophoresis (SDS-PAGE) and Western blotting.

[3] = system: eIF4F complex in 231S cells; experiment: m7GTP pulldown assay (eIF4F complex); format: cell-based, human
Description: 231S cells were serum starved for 1 h and cells were stimulated (and prepared) as described in the co-immunoprecipitation section. 100 nM AMD3465 (CXCR4 antagonist, Sigma-Aldrich, St. Louis, Mo., Cat. No. SML1433-5MG) was incubated 30 min prior to stimulation. 1 mg of total protein lysate in 1 mL of Co-IP buffer was incubated with 25 μL of m7-GTP agarose beads overnight at 4° C. (Jena Biosciences, Jena, Germany, Cat. No. AC-155S). Following incubation, beads were washed with Co-IP buffer. Protein was eluted and analyzed by SDS-PAGE and Western blotting.

[4] = system: CXCR4 signaling in 231S cells; experiment: Western blotting of phosphorylation of eIF4B, PDCD4, 4E-BP1 after CXCR4 activation; format: cell-based, human
Description: (§1) Cell lysates were prepared and quantified as described. Western blots were incubated with the following 1° Abs: Cyclin D1 (Cell Signaling Technology, Danvers, Mass., Cat. No. 2922), eIF4A C32B4 (Cell Signaling Technology, Danvers, Mass., Cat. No. 2013), eIF4B 1F5 (Cell Signaling Technology, Danvers, Mass., Cat. No. 13088), p-eIF4B S422 (Thermo Scientific, Rockford, Ill., Cat No. PA5-38362), eIF4E C46H6 (Cell Signaling Technology, Danvers, Mass., Cat. No. 2067), eIF4G C45A4 (Cell Signaling Technology, Danvers, Mass., Cat. No. 2469), GST 26H1 (Cell Signaling Technology, Danvers, Mass., Cat. No. 2624), LASP1 8C6 (Biolegend, San Diego, Calif., Cat. No. 909301), MDM2 SMP14 (Santa Cruz Biotechnology, Dallas, Tex., Cat. No. sc-965), PDCD4 D29C6 (Cell Signaling Technology, Danvers, Mass., Cat. No. 9535), p-PDCD4 S67 (Sigma-Aldrich, St. Louis, Mo., Cat. No. P0072), ROCK1 C8F7 (Cell Signaling Technology, Danvers, Mass., Cat. No. 4035), survivin 71G4B7 (Cell Signaling Technology, Danvers, Mass., Cat. No. 2808), 4E-BP1 53H11 (Cell Signaling Technology, Danvers, Mass., Cat. No. 9644), p-4E-BP1 Thr70 (Cell Signaling Technology, Danvers, Mass., Cat. No. 9455), and β-tubulin D66 (Sigma/Aldrich, St. Louis, Mo., Cat. No. T0198). Following primary incubation, Western blots were incubated with Goat anti-Mouse IgG (H+L) Superclonal™ Secondary Ab conjugated to HRP (Thermo Scientific, Rockford, Ill., Cat No. A28177) or Goat anti-Rabbit IgG (H+L) Superclonal™ Secondary Ab conjugated to HRP (Thermo Scientific, Rockford, Ill., Cat No. A27036). Finally, blots were developed with Amersham™ ECL™ Prime Western Blotting Detection Reagent (GE Healthcare Life Sciences, Pittsburgh, Pa., Cat. No. RPN2232) and HyBlot ES™ Autoradiography Film (Denville Scientific, Swedesboro, N.J., Cat. No. E3212). Densitometry of the Western blots was performed using ImageJ. Calculation of fold change is given in the figure legend for each experiment.

231S LASP1 NS cells = experiment: Western blotting of eIF4A-dependent genes after CXCL12 stimulation; format: cell-based, human; details: control-silenced (LASP1 NS) 231S cells, 10-20 nM CXCL12
Description: as §1, with “Following primary incubation, Western blots were incubated with Goat anti-Mouse IgG (H+L) Superclonal™ Secondary Ab conjugated to HRP (Thermo Scientific, Rockford, Ill., Cat No. A28177) or Goat anti-Rabbit IgG (H+L) Superclonal™ Secondary Ab conjugated to HRP (Thermo Scientific, Rockford, Ill., Cat No. A27036). Finally, blots were developed with Amersham™ ECL™ Prime Western Blotting Detection Reagent (GE Healthcare Life Sciences, Pittsburgh, Pa., Cat. No. RPN2232) and HyBlot ES™ Autoradiography Film (Denville Scientific, Swedesboro, N.J., Cat. No. E3212). Densitometry of the Western blots was performed using ImageJ. Calculation of fold change is given in the figure legend for each experiment.” left out

Compound | IC50 (MDA-MB-231 cells) [µM] | stimulation of the interaction between LASP1 and eIF4A ([1]; CXCL12 5 min vs unstimulated) [fold] | LASP1-eIF4A interaction dots (interactions/cell) ([1]; CXCL12 incubation for 5 min (20 nM), unstimulated 11.6±6.5) [dots] | increase in association of LASP1 with eIF4B (reciprocal Co-IP) ([2]; 20 nM CXCL12, 0 min set to 1) [fold] | association of endogenous LASP1 and eIF4A1 (reciprocal Co-IP) ([2]; 20 nM CXCL12, 5 min, 0 min set to 1) [fold] | eIF4G-eIF4E interaction (eIF4G recruitment) ([3]; 20 nM CXCL12, 20 min) [fold] | association of endogenous LASP1 with eIF4E ([3]; 20 nM CXCL12, peak at 5 min) [fold] | eIF4G-eIF4E interaction (eIF4G recruitment) ([3]; 20 nM CXCL12, peak at 5 min) [fold] | phosphorylation of PDCD4 (pS67) ([4]; CXCL12, 5 min) [fold] | phosphorylation of PDCD4 (pS67) ([4]; CXCL12, peak at 10 min) [fold] | protein levels of CCND1, BIRC5, Mdm2, and ROCK1 (231S LASP1 NS cells)
COC(=O)[C@H]1[C@@H](O)[C@@]2(O)c3c(OC)cc(O[C@@H]4O[C@@H]([C@H](O)CO)CO[C@H]4OC)cc3O[C@@]2(c2ccc(OC)cc2)[C@@H]1c1ccccc1 [Silvestrol] | 0.06 | – | – | – | – | – | – | – | – | – | –
CXCL12: ligand for CXCR4 (PeproTech), used to stimulate cells | – | 3 | 118±58.3 | 7.5 | 19.1 | 2.2 | 2.2 | 4.4 | 3.3 | 3.9 | considerable increases
